{
  "source": "patent US6127349A",
  "about": "“Phospholipid drug derivatives” (Amur Research Corporation, priority 1998, dated 2000)",
  "key": {"[1]": {"assay": "Partition of tritiated DHEA-phosphocholine reaction product between aqueous phase and benzene (scintillation counting)", "assay_type": "physicochemical", "description": "A dehydroepiandrosterone(DHEA)-phosphocholine derivative was synthesized as follows: 1 mg of phosphocholine (calcium salt; Sigma Chemical, St. Louis, Mo.) was dissolved in 0.5 ml of formamide (Cat # S-7503; Lot # 55HO257; Sigma Chemical) and 0.5 ml of pyridine (Cat # P-4036; Lot # 55H1489; Sigma Chemical). 0.025 mCi of (1,2,6,7 ^3 H(n)-Dehydroepiandrosterone (Cat # NET814; Lot # 3146097; 89.2 Ci/mmol; Dupont, NEN Products, Boston, Mass.) in 0.025 ml of ethanol was added. The reaction was catalyzed by the addition (as the dry solid) of 5 mg of dicyclohexylcarbodiimide (Cat # D-3129; Lot # 34hO647; Sigma Chemical). The reaction mixture was incubated overnight at room temperature. In the morning, 9 ml of water was added and the mixture extracted 3 times with 10 ml portions of benzene. The benzene extracts were combined and aliquots of both phases were counted in a scintillation counter. The results are set forth below:\nThe aqueous layer was re-extracted with benzene. The second benzene extraction yielded 272 cpm (0.01 M1) as a confirmation."}, "[2]": {"tested_on": "cutaneous hypersensitivity immune response", "assay": "DNCB-induced cutaneous contact hypersensitivity (ear swelling)", "assay_type": "in vivo, mice (Balb/c)", "conditions": "for cutaneous hypersensitivity immune response: 100 μg/day/mouse s.c., twelve days, ears rechallenged with 1% DNCB; for cutaneous hypersensitivity immune response / suppression of the response by dexamethasone: days 7-12; for suppression of the response by dexamethasone: steroid together with dexamethasone", "description": "The effects of DHEA-PC on cutaneous contact hypersensitivity was studied. In this study, mice (Balb/c) were immunologically challenged with DNCB (2 % in ethanol) applied to a 2 cm area on the back. The steroid was injected subcutaneously (100 μg/day/mouse) throughout the twelve-day study period. Ears were rechallenged with DNCB (1% in ethanol) on days 7-12 and swelling was measured daily in order to evaluate the effect on the immune system."}, "[3]": {"conditions": "oral; cited from earlier work"}, "neutral sphingomylenase": {"tested_on": "neutral sphingomylenase", "assay": "Hydrolysis of DHEA-PC by neutral sphingomyelinase", "assay_type": "biochemical", "description": "(§1) DHEA-phosphocholine (DHEA-PC) was synthesized by sequential reaction of DHEA, choline, and water with phosphorous oxychloride. The synthetic product had the same HPLC retention time and the same mass-spectrum as did the endogenous, actual compound. […] When human serum extracts were analyzed, mass fragments were detected at the same retention time as synthetic material."}, "acidic sphingomylenase": {"tested_on": "acidic sphingomylenase", "assay": "Hydrolysis of DHEA-PC by acidic sphingomyelinase", "assay_type": "biochemical", "description": "as §1"}, "[4]": {"conditions": "literature; cited from earlier work"}, "[5]": {"conditions": "cited from earlier work"}, "[6]": {"conditions": "oral administration, cited from earlier work"}, "[7]": {"tested_on": "enzyme on lymphocyte cell membrane that cleaves phosphocholine from other compounds", "assay": "Stimulation of lymphocyte membrane enzyme that cleaves phosphocholine", "assay_type": "biochemical", "conditions": "data not shown"}},
  "data": [
    {"compound": "C[C@]12CC[C@H](O)CC1=CC[C@@H]1[C@@H]2CC[C@]2(C)C(=O)CC[C@@H]12", "note": "[DHEA, dehydroepiandrosterone]", "values": [
      {"measurement": "extraction of free starting material into benzene", "setting": "[1]; water/benzene, expected with this protocol", "result": "extracted quantitatively into benzene"},
      {"measurement": "cutaneous hypersensitivity immune response", "setting": "[2]", "result": "similar, high level response"},
      {"measurement": "suppression of the response by dexamethasone", "setting": "[2]", "result": "not suppressed by dexamethasone"},
      {"measurement": "activity when administered orally", "setting": "[3]", "result": "only limited activity"}
    ]},
    {"compound": "C[C@]12CC[C@H](OP(=O)([O-])OCC[N+](C)(C)C)CC1=CC[C@@H]1[C@@H]2CC[C@]2(C)C(=O)CC[C@@H]12", "note": "[DHEA-PC, DHEA-3-PHOSPHOCHOLINE]", "values": [
      {"measurement": "second benzene extraction radioactivity", "setting": "[1]; 0.01 M1 aliquot, re-extraction of the aqueous layer with benzene", "result": 272, "unit": "cpm"},
      {"measurement": "Aqueous Phase radioactivity", "setting": "[1]; 0.01 ml aliquot, after 3 benzene extractions", "result": "10,729 cpm"},
      {"measurement": "Benzene Phase radioactivity", "setting": "[1]; 0.01 ml aliquot, combined benzene extracts", "result": "1,121 cpm"},
      {"measurement": "phase in which the reaction product is found", "setting": "[1]; water/benzene", "result": "remains in the aqueous phase"},
      {"measurement": "hydrolysis by neutral sphingomylenase", "setting": "neutral sphingomylenase", "result": "hydrolyzed by neutral sphingomylenase"},
      {"measurement": "hydrolysis by acidic sphingomylenase", "setting": "acidic sphingomylenase", "result": "not by acidic sphingomylenase"},
      {"measurement": "cutaneous hypersensitivity immune response", "setting": "[2]", "result": "enhanced the cutaneous hypersensitivity immune response similar to native steroids"},
      {"measurement": "dinitrochlorobenzene-induced sensitization", "setting": "[2]; administered to mice", "result": "potentiated dinitrochlorobenzene-induced sensitization"},
      {"measurement": "suppression of the response by dexamethasone", "setting": "[2]", "result": "not suppressed by dexamethasone"}
    ]},
    {"compound": "C[C@]12CC[C@H](OS(=O)(=O)O)CC1=CC[C@@H]1[C@@H]2CC[C@]2(C)C(=O)CC[C@@H]12", "note": "[DHEA-sulfate]", "values": [
      {"measurement": "cutaneous hypersensitivity immune response", "setting": "[2]", "result": "similar, high level response"},
      {"measurement": "suppression of the response by dexamethasone", "setting": "[2]", "result": "not suppressed by dexamethasone"}
    ]},
    {"compound": "O=C1N(Cc2ccc(CO)cc2)[C@H](Cc2ccccc2)[C@H](O)[C@@H](O)[C@@H](Cc2ccccc2)N1Cc1ccc(CO)cc1", "note": "[DMP-323]", "values": [
      {"measurement": "aqueous solubility", "setting": "[4]", "result": "low aqueous solubility"},
      {"measurement": "bioavailability upon administration to patients", "setting": "[5]", "result": "variability in the compounds bioavailability"},
      {"measurement": "efficacy", "setting": "[5]; patients", "result": "inconsistent efficacy"}
    ]},
    {"compound": "C[C@@H]1C[C@H]2[C@@H]3CCC4=CC(=O)C=C[C@]4(C)[C@@]3(F)[C@@H](O)C[C@]2(C)[C@@]1(O)C(=O)CO", "note": "[dexamethasone]", "values": [
      {"measurement": "immune response with dexamethasone administered by itself", "setting": "[2]; versus control", "result": "suppressed the immune response below the control"}
    ]},
    {"compound": "C[C@]12CC[C@@H]3c4ccc(O)cc4CC[C@H]3[C@@H]1CC[C@@H]2O", "note": "[estradiol]", "values": [
      {"measurement": "activity when administered orally", "setting": "[3]", "result": "only limited activity"}
    ]},
    {"compound": "C[C@]12CC[C@@H](O)C[C@H]1CC[C@@H]1[C@@H]2CC[C@]2(C)C(=O)CC[C@@H]12", "note": "[etiocholanolone]", "values": [
      {"measurement": "activity when administered orally", "setting": "[3]", "result": "only limited activity"},
      {"measurement": "inactivated on each pass through the liver", "setting": "[6]; free compound", "result": "about 99%"},
      {"measurement": "biologically available fraction of the administered drug", "setting": "[6]", "result": "only a fraction of a percent"}
    ]},
    {"compound": "C[C@]12CC[C@H]3[C@@H](CCC4=CC(=O)CC[C@@]43C)[C@@H]1CC[C@@H]2O", "note": "[testosterone]", "values": [
      {"measurement": "activity when administered orally", "setting": "[3]", "result": "only limited activity"}
    ]},
    {"compound": "TGF-α: stimulates lymphocyte membrane enzyme that cleaves phosphocholine", "values": [
      {"measurement": "stimulation of enzyme activity", "setting": "[7]", "result": "ten-fold"}
    ]}
  ]
}
